Laboratory results reported in the CheMixHub viscosity set.
± gives the uncertainty stated by the source.

Experiment: xn = mol fraction of the nth substance listed

CN(C)c1ccccc1 + CC(C)=O
viscosity [mPa·s], 101 kPa
Details | 303.15 K | 308.15 K
x1 = 0.0782 | 0.409 ± 0.019 | 0.374 ± 0.018
x1 = 0.1356 | 0.494 ± 0.021 | 0.448 ± 0.02
x1 = 0.1965 | 0.584 ± 0.024 | 0.535 ± 0.022
x1 = 0.2551 | 0.668 ± 0.026 | 0.614 ± 0.025
x1 = 0.3205 | 0.757 ± 0.029 | 0.698 ± 0.027
x1 = 0.3921 | 0.844 ± 0.032 | 0.781 ± 0.03
x1 = 0.4724 | 0.925 ± 0.035 | 0.857 ± 0.032
x1 = 0.5558 | 0.992 ± 0.037 | 0.921 ± 0.035
x1 = 0.6214 | 1.033 ± 0.038 | 0.958 ± 0.036
x1 = 0.7086 | 1.072 ± 0.039 | 0.995 ± 0.037
x1 = 0.7784 | 1.095 ± 0.04 | 1.018 ± 0.038
x1 = 0.8565 | 1.118 ± 0.041 | 1.046 ± 0.039
x1 = 0.9221 | 1.138 ± 0.041 | 1.069 ± 0.039

CCCCOC(=O)c1ccccc1C(=O)OCCCC + CCCCCCCCO
303.15 K, 101.33 kPa
Details | viscosity [mPa·s]
x1 = 0.1003 | 5.9 ± 0.033
x1 = 0.2011 | 5.876 ± 0.033
x1 = 0.3001 | 6.078 ± 0.033
x1 = 0.3996 | 6.444 ± 0.035
x1 = 0.5 | 6.901 ± 0.037
x1 = 0.5999 | 7.6 ± 0.04
x1 = 0.6958 | 8.396 ± 0.044
x1 = 0.7975 | 9.53 ± 0.048
x1 = 0.898 | 11.05 ± 0.055

C=CC#N + Cc1cc(C)cc(C)c1
307.4 K, 101.33 kPa
Details | viscosity [mPa·s]
x2 = 0.121 | 0.551 ± 0.005
x2 = 0.3367 | 0.495 ± 0.004
x2 = 0.5736 | 0.424 ± 0.004
x2 = 0.649 | 0.406 ± 0.004
x2 = 0.7535 | 0.373 ± 0.003
x2 = 0.9118 | 0.332 ± 0.003

C[N+](CCO)(CCO)CCO.[Cl-] + NC(N)=O
100 kPa, x1 = 0.5
Details | viscosity [mPa·s]
293.15 K | 6026 ± 390
298.15 K | 3662 ± 210
303.15 K | 2352 ± 120
308.15 K | 1540 ± 73
313.15 K | 1026 ± 44
318.15 K | 717 ± 28
323.15 K | 505 ± 18

[2H]O[2H] + CO
298.15 K, 101 kPa
Details | viscosity [mPa·s]
x2 = 0.0449 | 1.386 ± 0.011
x2 = 0.0748 | 1.535 ± 0.012
x2 = 0.1437 | 1.783 ± 0.013
x2 = 0.2044 | 1.893 ± 0.014
x2 = 0.3143 | 1.872 ± 0.014
x2 = 0.4238 | 1.711 ± 0.013
